From patent US8546348B2, “Upregulation of opioid receptors for management” (The Board of Regents of the University of Texas System, priority 2003, dated 2013)
Values joined by “and” are separate entries in the source; they are usually repeats but may differ in a detail not shown here. Equal entries are not always repeated. Where two headings read alike, the source gives them in different places.

Legend:
[1] = test system: high-threshold voltage-dependent Ca^2+ channels in DRG neurons; experiment: Perforated patch recording of DAMGO block of Ba2+ currents in cultured DRG neurons; format: cell-based, rat; conditions: for IC50: read-out: apparent affinity for DAMGO inhibition (IC50)
Description: Cells were superfused (2 ml/min) at 23-24° C. with external solution containing 130 mM tetraethylammonium (“TEA”) chloride, 5 mM CsCl, 1.5 mM BaCl2, 1 mM MgCl2, 10 mM Hepes, and 10 mM glucose (pH 7.2, adjusted with TEA-OH; osmolarity, 300 mosM). Patch electrodes (resistance, 2.2-3.5 MΩ) were filled with internal solution containing 100 mM CsMeSO3, 40 mM CsCl, 10 mM Hepes, and 300 μg/ml amphotericin B (pH=7.3 adjusted with CsOH, 320 mosM). The currents were filtered at 2-5 kHz and sampled at 100 μs per point. [D-Ala^2,N-MePhe^4,Gly^5-ol]enkephalin (“DAMGO”) was pressure delivered to the recorded cells through a drug applicator (8).
All data were expressed as mean±SEM. Paw withdrawal latencies obtained from different rats were averaged. Changes before and after morphine treatment within one rat group were analyzed with one-way ANOVA followed by post hoc Newman-Keuls analysis. Antinociceptive responses were expressed as maximum possible effect (“MPE”) by using the relation MPE=(postdrug PWL−baseline PWL)/(cutoff PWL−baseline PWL)×100. Dose-response curves were plotted as MPE vs. dose and fitted with the logistic equation. The doses estimated to produce 50% MPE, A50, and 95% confidence intervals were determined. The dose-response curves for DAMGO in current measurements were fitted with the Hill equation, i.e., response=(max−min)×[IC50/(IC50^n+dose^n)]+min, where max and min are maximal and minimal responses, IC50 is the dose for 50% of the block, and n is the Hill coefficient. The 95% confidence band analysis was used to evaluate the significance of the change in the IC50 and maximal block. To assess the significance of changes between two means, the Student's t test was used. A p<0.05 was considered significant.
It is well established that μ-opioids inhibit high-threshold voltage-dependent Ca^2+ currents in DRG neurons. […] Seven days after the infection, perforated patch whole-cell recordings were performed on the cells. External Ca^2+ was replaced by Ba^2+ to avoid rapid rundown of current responses.

[2] = test system: injured rats (sciatic nerve ligation); conditions: Kabli and Cahill; cited from earlier work
[3] = test system: spared nerve injury (SNI) rats; experiment: Mechanical allodynia (von Frey) in SNI rats treated with rAAV-δOR, intrathecal deltorphin or morphine; format: in vivo, rat
Description: Similar method as described before was used to induce inflammation To produce the nerve-injury in the rat paw, spared nerve injury (SNI) in rats was generated by transecting the sural and common peroneal sciatic nerves in the left rat leg while leaving the tibal nerve intact. To induce inflammation in the trigeminal nerve innervated areas, rats were lightly anesthetized with pentobarbital. CFA (10-50 μl) was injected into the rat temporomandibular joint (TMJ) 3-4 weeks after infection of rAAV-dOR. Behavioral experiments were performed 5-14 days after the CFA injection. To induce spare nerve injury in the trigeminal nerve, the infraorbital nerve branch of the maxillary nerve was ligated and the ophthalmic and mandibular nerves were left intact.
δ-opioid receptor expression was enhanced in dorsal root ganglia (DRGs) by injecting rAAV-dOR into the ganglion or into the sciatic nerve or by injecting dOR-FLAG DNA intrathecally. The δ-OR receptor expression was enhanced in the trigeminal ganglon by injecting rAAV-dOR into the trigeminal ganglion or into the maxillary nerve.
Three to four weeks later, the effects of morphine or other analgesic drugs on mechanical allodynia in SNI rats were determined behaviorally. Rat hindpaw withdrawal (PW) thresholds in response to stimulation of Von Frey filaments were measured. Each test consisted of applications of a series of von Frey filaments (ranging from 0.4 to 15.0 g) to the lateral plantar surface of the tested paw until it withdrew or for a maximum of 60 s. To avoid injury during tests, the cutoff strength of the von Frey filament was 15 g. The up and down method described by Chaplan et al. (12) was used to determine the PW threshold. Mechanical threshold or the maximum possible effect (MPE), i.e., ((test−min)/(max−min)]×100%, was used to calculate morphine mechanical analgesic effects.

[4] = test system: rats (thermal hyperalgesia, CFA); experiment: Paw withdrawal latency to radiant heat, intrathecal morphine, rats with rAAV injected into the sciatic nerve; conditions: rat, in vivo
[5] = test system: spared nerve injury (SNI) rats; experiment: Mechanical allodynia (von Frey) in spared nerve injury rats, intrathecal morphine, rAAV-μOR; format: in vivo, rat; conditions: intrathecal 1-10 μg, SNI rats without rAAV
[6] = test system: rats (inflammatory pain, CFA); experiment: Morphine antinociception (MPE, radiant heat) in CFA rats after DRG or sciatic nerve injection of rAAV; format: in vivo, rat; conditions: s.c. morphine, rAAV injected into DRGs
[7] = test system: rats (thermal nociceptive responses); experiment: Paw withdrawal latency to radiant heat, s.c. morphine, rats with rAAV injected into L4-L5 ganglia; format: in vivo, rat; conditions: 4 mg/kg morphine, non-CFA rats

SMILES	IC50 ([1]; rAAV-EGFP cells) [nM]	percentage of cells responded to DAMGO inhibition ([1]; rAAV-EGFP-treated cells) [%]	maximal block of Ba2+ currents ([1]; rAAV-μOR cells, Hill fit)	IC50 ([1]; rAAV-μOR cells) [nM]	percentage of cells responded to DAMGO inhibition ([1]; rAAV-μOR-treated DRG neurons) [%]	percentage of cells responded to DAMGO inhibition ([1]; untreated cells) [%]	IC50 ([1]; untreated cells) [nM]	time for which the drug is effective in reducing allodynic responses [2] [days]	reduction of allodynic responses ([3]; SNI rats)	reduction of allodynic responses ([3]; SNI rats, listed as Deltorphin)	reduction of allodynic responses ([3]; rAAV-δOR treated SNI rats)	time after which the effect dissipated [4] [min]	time at which MPE peaked [4] [min]	relief of mechanical allodynia [5]	time at which MPEs peaked [6] [min]	time within which MPEs dissipated [6]	time at which antinociceptive effects reached a maximum [7] [min]	time in which antinociceptive effects dissipated [7] [min]
C[C@@H](NC(=O)[C@@H](N)Cc1ccc(O)cc1)C(=O)NCC(=O)N(C)[C@@H](Cc1ccccc1)C(=O)NCCO [DAMGO, [D-Ala^2,N-MePhe^4,Gly^5-ol]enkephalin]	530 ± 30	54.5	31.63% and 31.63±0.03%	170 ± 60	89.2	57.1	640 ± 190											
CC(C)[C@H](NC(=O)[C@H](CCC(=O)O)NC(=O)[C@H](Cc1ccccc1)NC(=O)[C@@H](C)NC(=O)[C@@H](N)Cc1ccc(O)cc1)C(=O)N[C@H](C(=O)NCC(=O)O)C(C)C [deltorphin]								21	rather ineffective	ineffective	became effective							
CN1CC[C@]23c4c5ccc(O)c4O[C@H]2[C@@H](O)C=C[C@H]3[C@H]1C5 [morphine]								14				50	15 to 20	not effective	30 to 40	100 to 120 min and 100 min	30 to 40	80 to 90
